Activity calls are given as the source filed them. The rule behind the calls is not given here.
Columns and labels:
Mus musculus [1] = test: In vivo inhibition of NFkappaB in C57BL/6J mouse DSS-induced ulcerative colitis model assessed as increase in accumulation of NRF2 in nucleus at 400 nM, po by confocal microscopy; assay type: functional, organism-based
Mus musculus [2] = test: Anti-inflammatory activity against DSS-induced ulcerative colitis C57BL/6J mouse model assessed as reduction in body weight loss at 3 and 30 mg/kg, po administered for 7 days and measured daily; assay type: functional, organism-based
Mus musculus [3] = test: In vivo inhibition of NFkappaB in C57BL/6J mouse DSS-induced ulcerative colitis model assessed as downregulation of MRP8 expression at 10 and 30 mg/kg, po administered for 7 days and measured on day 7 by Western blot analysis; assay type: functional, organism-based
Mus musculus [4] = test: Anti-inflammatory activity against DSS-induced ulcerative colitis C57BL/6J mouse model assessed as reduction in impairment of T-cell receptor signalling genes at 30 mg/kg, po administered for 7 days and measured on day 7 by proteomic analysis; assay type: functional, organism-based
[5] = target: Voltage-gated inwardly rectifying potassium channel KCNH2 (Homo sapiens, UniProt Q12809); test: Inhibition of human ERG expressed in human HEK293 cells by whole cell patch clamp assay; assay type: cell-based
Mus musculus [6] = test: Anti-inflammatory activity against DSS-induced ulcerative colitis C57BL/6J mouse model assessed as reduction in impairment of cell-cell adhesion genes at 30 mg/kg, po administered for 7 days and measured on day 7 by proteomic analysis; assay type: functional, organism-based
Mus musculus [7] = test: Anti-inflammatory activity against DSS-induced ulcerative colitis C57BL/6J mouse model assessed as reduction in IL-6 production at 10 mg/kg, po administered for 7 days and measured on day 7 by ELISA; assay type: functional, organism-based
Mus musculus [8] = test: In vivo inhibition of NFkappaB in C57BL/6J mouse DSS-induced ulcerative colitis model assessed as reduction in NFkappaB p65 expression at 10 and 30 mg/kg, po administered for 7 days and measured on day 7 by Western blot analysis; assay type: functional, organism-based
Mus musculus [9] = test: Anti-inflammatory activity against DSS-induced ulcerative colitis C57BL/6J mouse model assessed as reduction in IL-23 production at 10 mg/kg, po administered for 7 days and measured on day 7 by ELISA; assay type: functional, organism-based
Mus musculus [10] = test: Anti-inflammatory activity against DSS-induced ulcerative colitis C57BL/6J mouse model assessed as reduction in colon swelling at 10 mg/kg, po administered for 7 days and measured on day 7; assay type: functional, organism-based
Mus musculus [11] = test: Anti-inflammatory activity against DSS-induced ulcerative colitis C57BL/6J mouse model assessed as reduction in body weight loss at 10 mg/kg, po administered for 7 days and measured daily; assay type: functional, organism-based
Mus musculus [12] = test: In vivo inhibition of NFkappaB in C57BL/6J mouse DSS-induced ulcerative colitis model assessed as downregulation of MRP14 expression at 10 and 30 mg/kg, po administered for 7 days and measured on day 7 by Western blot analysis; assay type: functional, organism-based
Homo sapiens = species on record: Homo sapiens; test: Binding affinity to recombinant His-tagged IkBalpha (unknown origin) by SPR analysis
Mus musculus [13] = test: Anti-inflammatory activity against DSS-induced ulcerative colitis C57BL/6J mouse model assessed as re-epithelialization of colon at 3 and 30 mg/kg, po administered for 7 days and measured on day 7 by […] and eosin staining based microscopic analysis; assay type: functional, organism-based
Mus musculus [14] = test: Anti-inflammatory activity against DSS-induced ulcerative colitis C57BL/6J mouse model assessed as reduction in colitis orally administered for 7 days and measured on day 7 by […] and eosin staining based microscopic analysis; assay type: functional, organism-based
Mus musculus [15] = test: Anti-inflammatory activity against DSS-induced ulcerative colitis C57BL/6J mouse model assessed as reduction in impairment of immune response genes at 30 mg/kg, po administered for 7 days and measured on day 7 by proteomic analysis; assay type: functional, organism-based
[16] = Toxicity in C57BL/6 mouse assessed as effect on spleen at 300 to 600 mg/kg, po administered for 7 days and measured on day 14; assay type: organism-based; conditions: in vivo, 168 h
Exportin-1 [17] = target: T1, Exportin-1 (Homo sapiens, UniProt O14980); test: Reversible inhibition of CRM1 in human 293T cells assessed as increase in translocation of NES-GFP to […] at 4 uM incubated for 2 hrs by confocal laser scanning microscopy; assay type: cell-based
Mus musculus [18] = test: Anti-inflammatory activity against DSS-induced ulcerative colitis C57BL/6J mouse model assessed as reduction in diarrhea at 10 mg/kg, po administered for 7 days and measured daily; assay type: functional, organism-based
Mus musculus [19] = test: Anti-inflammatory activity against DSS-induced ulcerative colitis C57BL/6J mouse model assessed as reduction in colon shortening at 3 and 30 mg/kg, po administered for 7 days and measured daily; assay type: functional, organism-based
[20] = Acute toxicity in C57BL/6 mouse assessed as lethargy at 300 to 600 mg/kg, po administered for 7 days and measured on day 7; assay type: organism-based; conditions: in vivo, 168 h
Mus musculus [21] = test: Anti-inflammatory activity against DSS-induced ulcerative colitis C57BL/6J mouse model assessed as restoration of colon length at 10 mg/kg, po administered for 7 days and measured on day 7; assay type: functional, organism-based
Mus musculus [22] = test: Anti-inflammatory activity against DSS-induced ulcerative colitis C57BL/6J mouse model assessed as reduction in impairment of epithelial barrier genes at 30 mg/kg, po administered for 7 days and measured on day 7 by proteomic analysis; assay type: functional, organism-based
Mus musculus [23] = test: Anti-inflammatory activity against DSS-induced ulcerative colitis C57BL/6J mouse model assessed as reduction in impairment of wound healing genes at 30 mg/kg, po administered for 7 days and measured on day 7 by proteomic analysis; assay type: functional, organism-based
[24] = target: Kelch-like ECH-associated protein 1 (Homo sapiens) (UniProt Q14145); test: Binding affinity to recombinant His-tagged Keap1 (unknown origin) by SPR analysis
[25] = Acute toxicity in C57BL/6 mouse assessed as weight loss at 300 to 600 mg/kg, po administered for 7 days and measured on day 7; assay type: organism-based; conditions: in vivo, 168 h
Mus musculus [26] = test: In vivo inhibition of NFkappaB in C57BL/6J mouse DSS-induced ulcerative colitis model assessed as increase in accumulation of IkBalpha in nucleus at 400 nM, po by confocal microscopy; assay type: functional, organism-based
Mus musculus [27] = test: Anti-inflammatory activity against DSS-induced ulcerative colitis C57BL/6J mouse model assessed as restoration of damaged colon mucosal layer at 10 mg/kg, po administered for 7 days and measured on day 7 by ELISA; assay type: functional, organism-based
[28] = Stability of compound in artificial intestinal juice assessed as half life; assay type: ADME
[29] = Toxicity in C57BL/6 mouse assessed as effect on colon at 300 to 600 mg/kg, po administered for 7 days and measured on day 14; assay type: organism-based; conditions: in vivo, 168 h
Mus musculus [30] = test: Anti-inflammatory activity against DSS-induced ulcerative colitis C57BL/6J mouse model assessed as reduction in colon inflammation at 10 mg/kg, po administered for 7 days and measured on day 7; assay type: functional, organism-based
Mus musculus [31] = test: Anti-inflammatory activity against DSS-induced ulcerative colitis C57BL/6J mouse model assessed as reduction in colon ulceration at 3 and 30 mg/kg, po administered for 7 days and measured on day 7 by […] and eosin staining based microscopic analysis; assay type: functional, organism-based
Mus musculus [32] = test: In vivo inhibition of NFkappaB in C57BL/6J mouse DSS-induced ulcerative colitis model assessed as increase in HO1 expression at 10 and 30 mg/kg, po administered for 7 days and measured on day 7 by Western blot analysis; assay type: functional, organism-based
Mus musculus [33] = test: Anti-inflammatory activity against DSS-induced ulcerative colitis C57BL/6J mouse model assessed as reduction in impairment of host defense genes at 30 mg/kg, po administered for 7 days and measured on day 7 by proteomic analysis; assay type: functional, organism-based
Mus musculus [34] = test: In vivo inhibition of NFkappaB in C57BL/6J mouse DSS-induced ulcerative colitis model assessed as increase in Nrf2 expression at 10 and 30 mg/kg, po administered for 7 days and measured on day 7 by Western blot analysis; assay type: functional, organism-based
Mus musculus [35] = test: Anti-inflammatory activity against DSS-induced ulcerative colitis C57BL/6J mouse model assessed as reduction in TNFalpha production at 10 mg/kg, po administered for 7 days and measured on day 7 by ELISA; assay type: functional, organism-based
HCT-15 = test: Antiproliferative activity against CRM1 siRNA […] human HCT15 cells assessed as reduction in cell viability incubated for 24 hrs; assay type: functional, cell-based; conditions: HCT-15, 24 h
Mus musculus [36] = test: Anti-inflammatory activity against DSS-induced ulcerative colitis C57BL/6J mouse model assessed as reduction in impairment of NF-kappaB signalling genes at 30 mg/kg, po administered for 7 days and measured on day 7 by proteomic analysis; assay type: functional, organism-based
Mus musculus [37] = test: Anti-inflammatory activity against DSS-induced ulcerative colitis C57BL/6J mouse model assessed as reduction in impairment of inflammatory response genes at 30 mg/kg, po administered for 7 days and measured on day 7 by proteomic analysis; assay type: functional, organism-based
Mus musculus [38] = test: Anti-inflammatory activity against DSS-induced ulcerative colitis C57BL/6J mouse model assessed as preservation of colon mucosal architecture at 3 and 30 mg/kg, po administered for 7 days and measured on day 7 by […] and eosin staining based microscopic analysis; assay type: functional, organism-based
Mus musculus [39] = test: Anti-inflammatory activity against DSS-induced ulcerative colitis C57BL/6J mouse model assessed as reduction in COX-2 production at 10 mg/kg, po administered for 7 days and measured on day 7 by ELISA; assay type: functional, organism-based
[40] = Permeability in human Caco2 cells at 10 uM incubated for 4 hrs by LC-MS/MS analysis; assay type: ADME, cell-based; conditions: caco-2, 4 h
Mus musculus [41] = test: In vivo inhibition of NFkappaB in C57BL/6J mouse DSS-induced ulcerative colitis model assessed as restoration of occludin expression at 10 and 30 mg/kg, po administered for 7 days and measured on day 7 by Western blot analysis; assay type: functional, organism-based
[42] = Cytotoxicity activity against human SNK6 cells assessed as GSH:GSSG ratio at 1 uM incubated for 48 hrs by GSH and GSSG assay kit method; assay type: cell-based
Mus musculus [43] = test: Anti-inflammatory activity against DSS-induced ulcerative colitis C57BL/6J mouse model assessed as reduction in colon ulceration at 10 mg/kg, po administered for 7 days and measured on day 7; assay type: functional, organism-based
Mus musculus [44] = test: In vivo inhibition of NFkappaB in C57BL/6J mouse DSS-induced ulcerative colitis model assessed as reduction in NQO1 expression at 10 and 30 mg/kg, po administered for 7 days and measured on day 7 by Western blot analysis; assay type: functional, organism-based
Mus musculus [45] = test: Anti-inflammatory activity against DSS-induced ulcerative colitis C57BL/6J mouse model assessed as reduction in colon inflammation at 3 and 30 mg/kg, po administered for 7 days and measured on day 7 by […] and eosin staining based microscopic analysis; assay type: functional, organism-based
Mus musculus [46] = test: Anti-inflammatory activity against DSS-induced ulcerative colitis C57BL/6J mouse model assessed as reduction in colon swelling at 3 and 30 mg/kg, po administered for 7 days and measured on day 7 by […] and eosin staining based microscopic analysis; assay type: functional, organism-based
Exportin-1 [47] = target: T1, Exportin-1; test: Binding affinity to recombinant His-tagged CRM1 (unknown origin) by SPR analysis
[48] = Stability of compound in artificial gastric juice assessed as half life; assay type: ADME
Mus musculus [49] = test: Anti-inflammatory activity against DSS-induced ulcerative colitis C57BL/6J mouse model assessed as reduction in diarrhea at 3 and 30 mg/kg, po administered for 7 days and measured daily; assay type: functional, organism-based
[50] = Acute toxicity in C57BL/6 mouse assessed as sickness indication at 300 to 600 mg/kg, po administered for 7 days and measured on day 7; assay type: organism-based; conditions: in vivo, 168 h
Mus musculus [51] = test: Anti-inflammatory activity against DSS-induced ulcerative colitis C57BL/6J mouse model assessed as reduction in IL-1beta production at 10 mg/kg, po administered for 7 days and measured on day 7 by ELISA; assay type: functional, organism-based

T1 sequence (O14980 whole entry): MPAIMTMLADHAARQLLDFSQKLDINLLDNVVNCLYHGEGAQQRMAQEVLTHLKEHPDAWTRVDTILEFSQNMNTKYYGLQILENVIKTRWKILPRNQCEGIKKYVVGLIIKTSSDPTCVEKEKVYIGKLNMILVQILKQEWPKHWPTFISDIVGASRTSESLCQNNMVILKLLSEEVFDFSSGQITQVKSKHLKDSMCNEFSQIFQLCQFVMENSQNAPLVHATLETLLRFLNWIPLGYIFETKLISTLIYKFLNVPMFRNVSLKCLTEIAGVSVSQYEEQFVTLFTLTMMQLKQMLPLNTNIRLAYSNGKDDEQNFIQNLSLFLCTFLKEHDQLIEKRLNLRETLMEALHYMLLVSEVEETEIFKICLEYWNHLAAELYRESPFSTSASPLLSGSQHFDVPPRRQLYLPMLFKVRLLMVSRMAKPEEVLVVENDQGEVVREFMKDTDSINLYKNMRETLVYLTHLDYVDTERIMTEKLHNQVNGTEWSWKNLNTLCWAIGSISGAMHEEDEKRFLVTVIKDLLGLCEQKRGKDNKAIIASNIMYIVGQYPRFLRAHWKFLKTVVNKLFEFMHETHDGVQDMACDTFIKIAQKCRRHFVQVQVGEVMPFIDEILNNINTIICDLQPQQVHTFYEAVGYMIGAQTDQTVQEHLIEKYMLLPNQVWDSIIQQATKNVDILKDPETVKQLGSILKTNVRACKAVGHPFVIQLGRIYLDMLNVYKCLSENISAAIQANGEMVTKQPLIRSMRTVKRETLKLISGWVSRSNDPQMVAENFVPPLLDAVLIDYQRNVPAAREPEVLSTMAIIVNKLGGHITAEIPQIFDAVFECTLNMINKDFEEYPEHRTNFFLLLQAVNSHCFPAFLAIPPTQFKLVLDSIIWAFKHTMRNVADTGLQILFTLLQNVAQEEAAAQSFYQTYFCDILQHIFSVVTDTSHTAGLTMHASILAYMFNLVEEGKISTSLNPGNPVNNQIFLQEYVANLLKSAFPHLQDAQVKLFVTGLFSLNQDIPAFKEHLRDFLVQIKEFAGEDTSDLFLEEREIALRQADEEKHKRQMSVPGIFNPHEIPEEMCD
Chain of Kelch-like ECH-associated protein 1 (Homo sapiens) (Q14145 whole entry): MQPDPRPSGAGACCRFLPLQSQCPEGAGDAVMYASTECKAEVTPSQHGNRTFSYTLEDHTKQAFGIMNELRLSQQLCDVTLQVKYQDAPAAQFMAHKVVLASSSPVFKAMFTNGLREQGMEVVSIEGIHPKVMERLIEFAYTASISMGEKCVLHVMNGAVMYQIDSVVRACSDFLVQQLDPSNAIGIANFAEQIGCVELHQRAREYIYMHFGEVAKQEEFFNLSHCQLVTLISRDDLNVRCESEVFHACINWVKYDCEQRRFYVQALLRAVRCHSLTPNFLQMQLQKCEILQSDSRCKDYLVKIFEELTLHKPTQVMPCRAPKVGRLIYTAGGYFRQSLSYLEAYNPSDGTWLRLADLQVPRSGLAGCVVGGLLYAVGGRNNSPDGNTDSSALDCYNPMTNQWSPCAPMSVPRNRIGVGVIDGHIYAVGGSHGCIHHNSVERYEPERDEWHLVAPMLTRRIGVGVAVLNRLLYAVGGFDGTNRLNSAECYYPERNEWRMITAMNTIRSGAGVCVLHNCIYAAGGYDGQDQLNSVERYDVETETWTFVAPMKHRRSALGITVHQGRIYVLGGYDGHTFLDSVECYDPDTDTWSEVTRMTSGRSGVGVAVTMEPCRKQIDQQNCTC
Chain of Voltage-gated inwardly rectifying potassium channel KCNH2 (Q12809 whole entry): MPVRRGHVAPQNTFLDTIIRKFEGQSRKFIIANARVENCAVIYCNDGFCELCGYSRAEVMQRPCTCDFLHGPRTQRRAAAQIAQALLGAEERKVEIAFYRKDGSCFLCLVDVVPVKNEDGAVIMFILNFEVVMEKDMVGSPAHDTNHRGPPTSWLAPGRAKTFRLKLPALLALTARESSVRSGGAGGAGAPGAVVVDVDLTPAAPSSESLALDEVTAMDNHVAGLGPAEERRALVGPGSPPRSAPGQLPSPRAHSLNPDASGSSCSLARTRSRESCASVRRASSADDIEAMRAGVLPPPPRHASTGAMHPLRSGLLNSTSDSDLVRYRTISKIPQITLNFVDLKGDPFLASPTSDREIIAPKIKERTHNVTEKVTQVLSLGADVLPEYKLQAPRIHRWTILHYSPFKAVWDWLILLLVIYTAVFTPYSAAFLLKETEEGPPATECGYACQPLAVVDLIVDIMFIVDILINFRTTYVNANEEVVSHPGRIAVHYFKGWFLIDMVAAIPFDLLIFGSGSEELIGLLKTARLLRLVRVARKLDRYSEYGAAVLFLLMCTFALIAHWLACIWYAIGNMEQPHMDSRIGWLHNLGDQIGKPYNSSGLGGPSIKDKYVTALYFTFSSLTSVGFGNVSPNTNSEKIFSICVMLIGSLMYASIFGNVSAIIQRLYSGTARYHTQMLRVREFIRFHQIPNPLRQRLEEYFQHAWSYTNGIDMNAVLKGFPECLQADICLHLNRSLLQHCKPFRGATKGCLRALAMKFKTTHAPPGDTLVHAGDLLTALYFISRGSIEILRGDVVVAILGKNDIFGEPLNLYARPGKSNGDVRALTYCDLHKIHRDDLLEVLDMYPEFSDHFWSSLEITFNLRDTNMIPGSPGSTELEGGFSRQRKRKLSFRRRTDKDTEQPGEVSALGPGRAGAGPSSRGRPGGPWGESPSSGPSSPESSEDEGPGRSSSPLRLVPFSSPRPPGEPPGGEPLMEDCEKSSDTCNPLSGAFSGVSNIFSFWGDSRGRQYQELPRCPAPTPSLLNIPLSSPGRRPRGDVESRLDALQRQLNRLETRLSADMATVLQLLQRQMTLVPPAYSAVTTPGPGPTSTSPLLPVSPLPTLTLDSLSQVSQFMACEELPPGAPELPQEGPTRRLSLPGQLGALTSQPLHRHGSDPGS

## [O-][S@@+](/C=C/CCN=C=S)c1cc(C(F)(F)F)cc(C(F)(F)F)c1
Mus musculus [1]
  inhibition: Active
Mus musculus [2]
  Activity: Active
Mus musculus [3]
  inhibition: Active
Mus musculus [4]
  Activity: Active
[5]
  IC50: > 30 µM
Mus musculus [6]
  Activity: Active
Mus musculus [7]
  Activity: Active
Mus musculus [8]
  inhibition: Active
Mus musculus [9]
  Activity: Active
Mus musculus [10]
  Activity: Active
Mus musculus [11]
  Activity: Active
Mus musculus [12]
  inhibition: Active
Homo sapiens
  Activity: inactive
Mus musculus [13]
  Activity: Active
Mus musculus [14]
  Activity: Dose-dependent effect
Mus musculus [15]
  Activity: Active
[16]
  Activity: Non-Toxic
Exportin-1 [17]
  inhibition: 100%
Mus musculus [18]
  Activity: Active
Mus musculus [19]
  Activity: Active
[20]
  Activity: Non-Toxic
Mus musculus [21]
  Activity: Active
Mus musculus [22]
  Activity: Active
Mus musculus [23]
  Activity: Active
[24]
  Activity: inactive
[25]
  Activity: Non-Toxic
Mus musculus [26]
  inhibition: Active
Mus musculus [27]
  Activity: Active
[28]
  half-life: 8 h
[29]
  Activity: Non-Toxic
Mus musculus [30]
  Activity: Active
Mus musculus [31]
  Activity: Active
Mus musculus [32]
  inhibition: Active
Mus musculus [33]
  Activity: Active
Mus musculus [34]
  inhibition: Active
Mus musculus [35]
  Activity: Active
HCT-15
  IC50: 14.7 µM
Mus musculus [36]
  Activity: Active
Mus musculus [37]
  Activity: Active
Mus musculus [38]
  Activity: Active
Mus musculus [39]
  Activity: Active
[40]
  permeability: Permeable
Mus musculus [41]
  inhibition: Active
[42]
  Activity: Non-Toxic
Mus musculus [43]
  Activity: Active
Mus musculus [44]
  inhibition: Active
Mus musculus [45]
  Activity: Active
Mus musculus [46]
  Activity: Active
Exportin-1 [47]
  Kd: 0.0269 µM
[48]
  half-life: 24 h
Mus musculus [49]
  Activity: Active
[50]
  Activity: Non-Toxic
Mus musculus [51]
  Activity: Active

Reference: ChEMBL document CHEMBL4402590, “Small-Molecule Antagonist Targeting Exportin-1 via Rational Structure-Based Discovery” (J Med Chem, 2020)
